From patent US10633350B2, “Diphenyl derivatives and uses thereof” (NOVARTIS AG, priority 2017, dated 2020)

How the values were obtained:
FoxO3a = FoxO3a inhibition assay (GFP-FoxO3a nuclear to cytoplasmic translocation) in U2OS GFP-FoxO3a H212R reporter cells; type: cell-based; conditions: Homo sapiens, 0.5 h, serum starved overnight, 30 minutes compound treatment, ratio of nuclear to cytosolic GFP intensity, AC50 = concentration that results in 50% activation or inhibition, read-out: FoxO AC50
Outline: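 Serum-starved (overnight) cells treated with compounds at various doses for 30 min, then fixed in 4% paraformaldehyde and stained overnight at 4 °C for pAkt S473 with Hoechst nuclear counterstain; high-content imaging. FoxO3a readout: nuclear/cytosolic GFP ratio (%); Akt readout: total cellular pAkt intensity (%); DMSO = 0% activity.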

Akt = Akt activation assay (Phospho-AKT (Ser473) antibody staining) in U2OS GFP-FoxO3a H212R reporter cells; type: cell-based; conditions: Homo sapiens, 0.5 h, serum starved overnight, 30 minutes compound treatment, total cellular intensity of Phospho-Akt (Ser473) antibody staining, AC50 = concentration that results in 50% activation or inhibition
Experimental: Phosphorylation of Akt on S473 and FoxO3a nuclear to cytoplasmic translocation were used as readouts of PI3K/Akt/mTOR pathway activation downstream of growth factor signaling.
Reporter cell line. U2OS GFP-FoxO3a H212R reporter cell line was established by transducing U2OS cells with the retroviral plasmid pLEGFP-C1 containing FoxO3a H212R transgene and selecting for G418 resistant clones.
Reporter assay. U2OS GFP-FoxO3a H212R cells were plated in 384-well plates at 4000 cells per well in 30 microliters of McCoy's 5A medium containing 10% FBS. On day 1 the cells were washed with serum free medium and serum starved overnight. On day 2 the cells were treated with different doses of the compounds for 30 minutes, fixed with 4% Paraformaldehyde for 1 hour and stained with Phospho-AKT (Ser473) antibody (Cell Signaling Technology, catalog #4060) overnight at 4° C. After nuclei staining with Hoechst 33342 (Life Technologies, catalog # H3570) the plates were imaged with InCell 2000 (GE Healthcare Bio-Sciences). FoxO3a inhibition activity is calculated as the ratio of nuclear to cytosolic GFP intensity in percent. Akt activation is measured as the total cellular intensity of Phospho-Akt antibody staining in percent. DMSO control is set as 0% activity.

Cc1nc(C(N)=O)nn1-c1ccc(Cc2ccc(-c3ccc(CN4CCN(C)CC4)cc3)cc2)cc1 [Example 15-1, 5-methyl-1-(4-((4′-((4-methylpiperazin-1-yl)methyl)-[1,1′-biphenyl]-4-yl)methyl)phenyl)-1H-1,2,4-triazole-3-carboxamide]
AC50 (FoxO3a): 69 nM
AC50 (Akt): 166 nM

Cc1nc(C(N)=O)nn1-c1ccc(Cc2ccc(-c3cccnc3)cc2)cc1 [Example 15-2]
AC50 (FoxO3a): 277 nM
AC50 (Akt): 888 nM

Cc1nc(C(N)=O)nn1-c1ccc(Cc2ccc(-c3ccc(C(=O)N4CCN(C)CC4)cc3)cc2)cc1 [Example 15-3]
AC50 (FoxO3a): 60 nM
AC50 (Akt): 188 nM

Cc1nc(C(N)=O)nn1-c1ccc(Cc2ccc(-c3ccc(CN4CCCC4)cc3)cc2)cc1 [Example 15-4]
AC50 (FoxO3a): 33 nM
AC50 (Akt): 99 nM

Cc1cc(C(N)=O)nn1-c1ccc(Cc2ccc(-c3ccc(CN4CCC[C@H]4CO)cc3)cc2)cc1 [Example 16-1, (S)-1-(4-((4′-((2-(hydroxymethyl)pyrrolidin-1-yl)methyl)-[1,1′-biphenyl]-4-yl)methyl)phenyl)-5-methyl-1H-pyrazole-3-carboxamide]
AC50 (FoxO3a): 33 nM
AC50 (Akt): 90 nM

Cc1cc(C(N)=O)nn1-c1ccc(Cc2ccc(-c3ccc(CNCCO)cc3)cc2)cc1 [Example 16-2]
AC50 (FoxO3a): 138 nM
AC50 (Akt): 426 nM

Cc1cc(C(N)=O)nn1-c1ccc(Cc2ccc(-c3ccc(CNC4CCC4)cc3)cc2)cc1 [Example 16-3]
AC50 (FoxO3a): 500 nM
AC50 (Akt): 804 nM

Cc1cc(C(N)=O)nn1-c1ccc(Cc2ccc(-c3ccc(CNC4COC4)cc3)cc2)cc1 [Example 16-4]
AC50 (FoxO3a): 41 nM
AC50 (Akt): 120 nM

Cc1cc(C(N)=O)nn1-c1ccc(Cc2ccc(-c3ccc(CN4CCCCC4)cc3)cc2)cc1 [Example 16-6]
AC50 (FoxO3a): 103 nM
AC50 (Akt): 248 nM

Cc1cc(C(N)=O)nn1-c1ccc(Cc2ccc(-c3ccc(CC4CCCN4CO)cc3)cc2)cc1 (centres unmarked) [Example 16-7]
AC50 (FoxO3a): 9 nM
AC50 (Akt): 24 nM

Cc1cc(C(N)=O)nn1-c1ccc(Cc2ccc(-c3ccc(CN4CCC4)cc3)cc2)cc1 [Example 16-8]
AC50 (FoxO3a): 117 nM
AC50 (Akt): 300 nM

Cc1cc(C(N)=O)nn1-c1ccc(Cc2ccc(-c3ccc(S(=O)(=O)CCO)cc3)cc2)cc1 [Example 17, 1-(4-((4′-((2-hydroxyethyl)sulfonyl)-[1,1′-biphenyl]-4-yl)methyl)phenyl)-5-methyl-1H-pyrazole-3-carboxamide]
AC50 (FoxO3a): 29 nM
AC50 (Akt): 101 nM

Cc1cc(C(N)=O)nn1-c1ccc(Cc2ccc(-c3ccc(CN4CC(F)(F)C[C@@H]4CO)cc3)cc2)cc1 [Example 18, (R)-1-(4-((4′-((4,4-difluoro-2-(hydroxymethyl)pyrrolidin-1-yl)methyl)-[1,1′-biphenyl]-4-yl)methyl)phenyl)-5-methyl-1H-pyrazole-3-carboxamide]
AC50 (FoxO3a): 95 nM
AC50 (Akt): 394 nM

Cc1cc(C(N)=O)nn1-c1ccc(Cc2ccc(-c3ccc(C(C)(C)O)cn3)cc2)cc1 [Example 19, 1-(4-(4-(5-(2-hydroxypropan-2-yl)pyridin-2-yl)benzyl)phenyl)-5-methyl-1H-pyrazole-3-carboxamide]
AC50 (FoxO3a): 71 nM
AC50 (Akt): 209 nM

Cc1nc(-c2ccc(Cc3ccc(-n4nc(C(N)=O)cc4C)cc3)cc2)ccc1C(C)(C)O [Example 20, 1-(4-(4-(5-(2-hydroxypropan-2-yl)-6-methylpyridin-2-yl)benzyl)phenyl)-5-methyl-1H-pyrazole-3-carboxamide]
AC50 (FoxO3a): 91 nM
AC50 (Akt): 208 nM

Cc1nc(C(N)=O)nn1-c1ccc(Cc2ccc(-c3ccc(C(C)(C)O)cn3)cc2)cc1 [Example 21, 1-(4-(4-(5-(2-hydroxypropan-2-yl)pyridin-2-yl)benzyl)phenyl)-5-methyl-1H-1,2,4-triazole-3-carboxamide]
AC50 (FoxO3a): 155 nM
AC50 (Akt): 723 nM

Cc1cc(C(N)=O)nn1-c1ccc(Cc2ccc(-c3ccc(C4(O)COC4)nc3)cc2)cc1 [Example 22, 1-(4-(4-(6-(3-hydroxyoxetan-3-yl)pyridin-3-yl)benzyl)phenyl)-5-methyl-1H-pyrazole-3-carboxamide]
AC50 (FoxO3a): 42 nM
AC50 (Akt): 187 nM

Cc1cc(C(N)=O)nn1-c1ccc(Cc2ccc(-c3ccnc(C(C)(C)O)c3)cc2)cc1 [Example 23, 1-(4-(4-(2-(2-hydroxypropan-2-yl)pyridin-4-yl)benzyl)phenyl)-5-methyl-1H-pyrazole-3-carboxamide]
AC50 (FoxO3a): 121 nM
AC50 (Akt): 639 nM

Cc1cc(C(N)=O)nn1-c1ccc(Cc2ccc(-c3ccc(C(=O)N4CCNCC4)cc3)cc2)cc1 [Example 24, 5-methyl-1-(4-((4′-(piperazine-1-carbonyl)-[1,1′-biphenyl]-4-yl)methyl)phenyl)-1H-pyrazole-3-carboxamide]
AC50 (FoxO3a): 33 nM
AC50 (Akt): 155 nM

Cc1nc(C(N)=O)nn1-c1ccc(Cc2ccc(-c3ccc(C(=O)N4CCNCC4)cc3)cc2)cc1 [Example 25, 5-methyl-1-(4-((4′-(piperazine-1-carbonyl)-[1,1′-biphenyl]-4-yl)methyl)phenyl)-1H-1,2,4-triazole-3-carboxamide]
AC50 (FoxO3a): 135 nM
AC50 (Akt): 726 nM

Cc1cc(C(N)=O)nn1-c1ccc(Cc2ccc(-c3ccc(C(=O)N4CCNCC4)nc3)cc2)cc1 [Example 26, 5-methyl-1-(4-(4-(6-(piperazine-1-carbonyl)pyridin-3-yl)benzyl)phenyl)-1H-pyrazole-3-carboxamide]
AC50 (FoxO3a): 75 nM
AC50 (Akt): 480 nM

Cc1cc(C(N)=O)nn1-c1ccc(Cc2ccc(-c3ccc(C(=O)N4CCN[C@@H](CO)C4)cc3)cc2)cc1 [Example 28, (R)-1-(4-((4′-(3-(hydroxymethyl)piperazine-1-carbonyl)-[1,1′-biphenyl]-4-yl)methyl)phenyl)-5-methyl-1H-pyrazole-3-carboxamide]
AC50 (FoxO3a): 26 nM
AC50 (Akt): 73 nM

Cc1nc(C(N)=O)nn1-c1ccc(Cc2ccc(-c3ccc(C(=O)N4CCN[C@@H](C)C4)cc3)cc2)cc1 [Example 29, (S)-5-methyl-1-(4-((4′-(3-methylpiperazine-1-carbonyl)-[1,1′-biphenyl]-4-yl)methyl)phenyl)-1H-1,2,4-triazole-3-carboxamide]
AC50 (FoxO3a): 138 nM
AC50 (Akt): 486 nM

Cc1cc(C(N)=O)nn1-c1ccc(Cc2ccc(-c3ccc(C(=O)NC4CNC4)cc3)cc2)cc1 [Example 30, 1-(4-((4′-(azetidin-3-ylcarbamoyl)-[1,1′-biphenyl]-4-yl)methyl)phenyl)-5-methyl-1H-pyrazole-3-carboxamide]
AC50 (FoxO3a): 237 nM
AC50 (Akt): 802 nM

Cc1cc(C(N)=O)nn1-c1ccc(Cc2ccc(-c3ccc(CN4CCNCC4)nc3)cc2)cc1 [Example 31-1, 5-methyl-1-(4-(4-(6-(piperazin-1-ylmethyl)pyridin-3-yl)benzyl)phenyl)-1H-pyrazole-3-carboxamide]
AC50 (FoxO3a): 77 nM
AC50 (Akt): 354 nM

Cc1cc(C(N)=O)nn1-c1ccc(Cc2ccc(-c3ccnc(CN4CCNCC4)c3)cc2)cc1 [Example 31-2]
AC50 (FoxO3a): 373 nM
AC50 (Akt): 1620 nM

Cc1cc(C(N)=O)nn1-c1ccc(Cc2ccc(-c3ccc(CN4CCNCC4)cn3)cc2)cc1 [Example 31-3, 5-methyl-1-(4-(4-(5-(piperazin-1-ylmethyl)pyridin-2-yl)benzyl)phenyl)-1H-pyrazole-3-carboxamide]
AC50 (FoxO3a): 158 nM
AC50 (Akt): 190 nM

Cc1cc(C(N)=O)nn1-c1ccc(Cc2ccc(-c3ccc(CN4CCN(CCO)CC4)nc3)cc2)cc1 [Example 32, 1-(4-(4-(6-((4-(2-hydroxyethyl)piperazin-1-yl)methyl)pyridin-3-yl)benzyl)phenyl)-5-methyl-1H-pyrazole-3-carboxamide]
AC50 (FoxO3a): 315 nM
AC50 (Akt): 647 nM

Cc1nc(C(N)=O)nn1-c1ccc(Cc2ccc(-c3ccc(CN4CCN(C)CC4)nc3)cc2)cc1 [Example 34, 5-methyl-1-(4-(4-(6-((4-methylpiperazin-1-yl)methyl)pyridin-3-yl)benzyl)phenyl)-1H-1,2,4-triazole-3-carboxamide]
AC50 (FoxO3a): 300 nM
AC50 (Akt): 576 nM

Cc1nc(C(N)=O)nn1-c1ccc(Cc2ccc(-c3ccc(CN4CCN(C)[C@@H](C)C4)nc3)cc2)cc1 [Example 37, (S)-1-(4-(4-(6-((3,4-dimethylpiperazin-1-yl)methyl)pyridin-3-yl)benzyl)phenyl)-5-methyl-1H-1,2,4-triazole-3-carboxamide]
AC50 (FoxO3a): 276 nM
AC50 (Akt): 498 nM

Cc1nc(C(N)=O)nn1-c1ccc(Cc2ccc(-c3ccc(CN4CCC(F)(F)C4)cc3)cc2)cc1 [Example 38-2]
AC50 (FoxO3a): 48 nM
AC50 (Akt): 230 nM

Cc1nc(C(N)=O)nn1-c1ccc(Cc2ccc(-c3ccc(CN4CC5(COC5)C4)cc3)cc2)cc1 [Example 38-4]
AC50 (FoxO3a): 62 nM
AC50 (Akt): 207 nM

Cc1nc(C(N)=O)nn1-c1ccc(Cc2ccc(-c3ccc(CN4CCC[C@@H]4CO)cc3)cc2)cc1 [Example 38-5]
AC50 (FoxO3a): 26 nM
AC50 (Akt): 27 nM

Cc1nc(C(N)=O)nn1-c1ccc(Cc2ccc(-c3ccc(CN4CCC(C)(C)C4)cc3)cc2)cc1 [Example 38-7]
AC50 (FoxO3a): 15 nM
AC50 (Akt): 31 nM
